The numbers were not newly measured in patent US9291622B2, “Complement assays and uses thereof” (Apellis Pharmaceuticals, Inc., priority 2009, dated 2016), which cites them from elsewhere.

[ ]: non-standard residue; d: D form. Trp(5-F) = N[C@@H](Cc1c[nH]c2ccc(F)cc12)C(=O)O; Trp(5-Me) = Cc1ccc2[nH]cc(C[C@H](N)C(=O)O)c2c1; Trp(6-F) = N[C@@H](Cc1c[nH]c2cc(F)ccc12)C(=O)O; Bpa = N[C@@H](Cc1ccc(C(=O)c2ccccc2)cc1)C(=O)O; 1Nal = N[C@@H](Cc1cccc2ccccc12)C(=O)O; 2Nal = N[C@@H](Cc1ccc2ccccc2c1)C(=O)O; Igl = N[C@H](C(=O)O)C1Cc2ccccc2C1; Dht = dihydrotryptophan

This data set concerns complement activation. Conditions: fold activity relative to compstatin (H-ICVVQDWGHHRCT-CONH2).
“Ac-ICV(1-Nal)QDWGAHRCT-COOH (Ac-ICV[1Nal]QDWGAHRCT-OH; cysteine pairing not given here) [Ac V4(1-Nal)/H9A —OH]”: the Activity over compstatin is reported as 30 × more.
Consider “Ac-ICV(2-Igl)QDWGAHRCT-CONH2 (Ac-ICV[Igl]QDWGAHRCT-NH2; cysteine pairing not given here) [Ac-V42Igl/H9A]”, for which the Activity over compstatin is 39 × more.
As to “Ac-ICV(2-Igl)QDWGAHRCT-COOH (Ac-ICV[Igl]QDWGAHRCT-OH; cysteine pairing not given here) [Ac-V42Igl/H9A —OH]”, the Activity over compstatin is recorded as 37 × more.
With “Ac-ICV(2-Nal)QDWGAHRCT-CONH2 (Ac-ICV[2Nal]QDWGAHRCT-NH2; cysteine pairing not given here) [Ac-V4(2-Nal)/H9A]”, the Activity over compstatin is listed as 99 × more.
Take “Ac-ICV(2-Nal)QDWGAHRCT-COOH (Ac-ICV[2Nal]QDWGAHRCT-OH; cysteine pairing not given here) [Ac V4(2-Nal)/H9A —OH]”: the Activity over compstatin is reported as 38 × more.
For “Ac-ICV(5-methyl-W)QDWGAHRCT-CONH2 (Ac-ICV[Trp(5-Me)]QDWGAHRCT-NH2; cysteine pairing not given here) [Ac-V4(5-MeW)/H9A]”, the Activity over compstatin is 67 × more.
“Ac-ICV(5fW)QD(5fW)GAHRCT-CONH2 (Ac-ICV[Trp(5-F)]QD[Trp(5-F)]GAHRCT-NH2; cysteine pairing not given here) [Ac-V4(5fW)/W7(5fW)/H9A]”: the Activity over compstatin is reported as 161 × more.
Regarding “Ac-ICV(5fW)QDWGAHRCT-CONH2 (Ac-ICV[Trp(5-F)]QDWGAHRCT-NH2; cysteine pairing not given here) [Ac-V4(5fW)/H9A]”, the Activity over compstatin is listed as 31 × more.
In the case of “Ac-ICV(Bpa)QDWGAHRCT-CONH2 (Ac-ICV[Bpa]QDWGAHRCT-NH2; cysteine pairing not given here) [Ac-V4(Bpa)/H9A]”, the Activity over compstatin is 86 × more.
Consider “Ac-ICV(Bpa)QDWGAHRCT-COOH (Ac-ICV[Bpa]QDWGAHRCT-OH; cysteine pairing not given here) [Ac-V4(Bpa)/H9A —OH]”, for which the Activity over compstatin was 49 × more.
Consider “Ac-ICVDhtQDWGAHRCT-COOH (Ac-ICV[Dht]QDWGAHRCT-OH; cysteine pairing not given here) [Ac-V4Dht/H9A —OH]”, for which the Activity over compstatin is on record as 5 × more.
On to Ac-ICVVQDWGHHRCT-CONH2 [Ac-compstatin], for which the Activity over compstatin was 3 × more.
On to “Ac-ICVWQD(5fW)GAHRCT-CONH2 (Ac-ICVWQD[Trp(5-F)]GAHRCT-NH2; cysteine pairing not given here) [Ac-V4W/W7(5fW)/H9A]”, for which the Activity over compstatin is 121 × more.
With “Ac-ICVWQDWGAHRCT-CONH2 (Ac-ICVWQDWGAHRCT-NH2; cysteine pairing not given here) [Ac-V4W/H9A]”, the Activity over compstatin is given as 45 × more.
Consider “Ac-ICVWQDWGAHRCdT-COOH [Ac-V4W/H9A/T13dT —OH]”, for which the Activity over compstatin is given as 55 × more.
Ac-ICVYQDWGAHRCT-CONH2 [Ac-V4Y/H9A]: the Activity over compstatin is reported as 14 × more.
Regarding “H-GICV(6fW)QD(6fW)GAHRCTN-COOH (H-GICV[Trp(6-F)]QD[Trp(6-F)]GAHRCTN-OH; cysteine pairing not given here) [+G/V4(6fW)/W7(6fW)H9A +N —OH]”, the Activity over compstatin is on record as 126 × more.
